In brackets after ≈: the same amount, converted by molar mass.
Tests used:
Assay type in all cases: physicochemical
[1] = Solubility of deucravacitinib in different solvents
From the text: The solubility of deucravacitinib was examined in various solvents. […] As these solvents can, in some instances, result in skin irritation, they were not included in the development of the formulations described later in the Examples.

[2] = Solubility of deucravacitinib in solvent systems
From the text: The solubility of deucravacitinib was examined in various solvent systems that included water, as water is an essential component in aqueous gels and creams. The example solvent systems in Table 2 were designed for cream formulations. The total percentage of the solvent system was up to 80% of the total % w/w of the composition, with the remaining up to 20% reserved for oil component(s). Water or acidic buffer (an aqueous solution) accounted for 25% w/w of the total composition.

[3] = Solubility of deucravacitinib in water
[4] = solvent: N-methyl-2-pyrrolidone (NMP)
[5] = solvent: dimethyl sulfoxide (DMSO)

Deucravacitinib solubility ([1]; solvent: Caprylic/capric triglyceride): 0.01 % w/w | Deucravacitinib solubility ([1]; solvent: Diethylene glycol monoethyl ether (DEGEE)): 0.62 % w/w | Deucravacitinib solubility ([1]; solvent: Diisopropyl adipate): 0.01 % w/w | Deucravacitinib solubility ([1]; solvent: Dimethyl isosorbide (DMI)): 0.51 % w/w | Deucravacitinib solubility ([1]; solvent: Ethanol): 0.07 % w/w | Deucravacitinib solubility ([1]; solvent: Isopropanol): 0.02 % w/w | Deucravacitinib solubility ([1]; solvent: Isopropyl myristate): 0.00 % w/w | Deucravacitinib solubility [1, 4]: 10.09 % w/w | solubility (in words) [1, 4]: high solubility | Deucravacitinib solubility ([1]; solvent: Octyldodecanol): 0.01 % w/w | Deucravacitinib solubility ([1]; solvent: Polyethylene glycol (PEG) 400): 0.64 % w/w | Deucravacitinib solubility ([1]; solvent: Polysorbate 80): 0.31 % w/w | Deucravacitinib solubility ([1]; solvent: Propylene glycol): 0.16 % w/w | Deucravacitinib solubility [1, 5]: 9.49 % w/w | solubility (in words) [1, 5]: high solubility | Deucravacitinib solubility ([2]; S1: water 25, PEG 400 38, DEGEE 15, benzyl alcohol 2 % w/w): 0.51 % w/w | Deucravacitinib solubility ([2]; S2: water 25, PEG 400 38, DMI 15, benzyl alcohol 2 % w/w): 0.48 % w/w | Deucravacitinib solubility ([2]; S3: water 25, PEG 400 23, DEGEE 15, DMI 15, benzyl alcohol 2 % w/w): 0.72 % w/w | Deucravacitinib solubility ([2]; S4: 0.1N hydrochloric acid solution 25, PEG 400 38, DEGEE 15, benzyl alcohol 2 % w/w): 0.77 % w/w | Deucravacitinib solubility ([2]; S5: 0.1N hydrochloric acid solution 25, PEG 400 38, DMI 15, benzyl alcohol 2 % w/w): 0.83 % w/w | Deucravacitinib solubility ([2]; S6: 0.1N hydrochloric acid solution 25, PEG 400 23, DEGEE 15, DMI 15, benzyl alcohol 2 % w/w): 1.33 % w/w | solubility (in words) ([2]; three-solvent system S3 (PEG 400, DEGEE, DMI) compared to two-solvent systems S1 and S2): greatest solubility | solubility [3]: ~9 µg/mL (≈ 21.2 µM) | solubility in water [3]: ~0.00009 % w/w
Compound: [2H]C([2H])([2H])NC(=O)c1nnc(NC(=O)C2CC2)cc1Nc1cccc(-c2ncn(C)n2)c1OC [Deucravacitinib, 6-(cyclopropanecarboxamido)-4-((2-methoxy-3-(1-methyl-1H-1,2,4-triazol-3-yl)phenyl)amino)-N-(methyl-d3)pyridazine-3-carboxamide]
